Experimental data reported in patent US9809562B2, “NAT10 modulators for treating or preventing laminopathies, aging and cancer” (CAMBRIDGE ENTERPRISE LIMITED, priority 2014, dated 2017).
Counter-ions that a name gives are not always drawn.

Experiments:
LMNA KO U2OS cells = experiment: Global protein translation by HPG incorporation (FACS), LMNA KO; assay type: cell-based, human; conditions: 24 h treatment, 1 h HPG
Experimental: U2OS cells expressing wild type or KO LMNA were treated with Compound 2 for 24 h and incubated for 1 h with the clickable methionine analogue HPG to measure global protein translation. HPG was then clicked with an Alexa fluor 488 and global fluorescence intensity was quantified by FACS on 10 000 cells.

[1] = In vivo toxicity, body weight change; conditions: mice, oral daily dose for 14 days
siLMNA cells = experiment: Golgi apparatus integrity (anti-Giantin) in siLMNA cells; assay type: cell-based, human
Description: FIG. 13: Inhibiting NAT10 acetyltransferase activity modifies microtubule organisation to rescue nuclear shape defects. A) Microtubule network visualisation by inverted IF pictures of α-Tubulin. B) Nuclear shape visualisation after treating cells with microtubule or actin cytoskeleton disrupting agents. C) Visualisation of nuclear shape (DAPI) and Golgi (anti-Giantin) integrity in siLMNA cells. D) Fractionation of polymerised (P) and soluble (S) tubulin upon Remodelin or nocodazole (Nocod.) treatment. […] Right: quantification of cells with the indicated patterns (means of three independent experiments with n>103±s.e.m.). F) Laminopathic cells have enlarged, misshapen nuclei associated with disorganized chromatin structure. Upon Remodelin treatment, NAT10 acetyltransferase activity is inhibited, leading to disruption of microtubule anchorage at the centrosome and release of microtubule forces on the nuclear envelope. This release of mechanical stress on the nucleus contributes to nuclear shape rescue and global improvement of cellular fitness and chromatin organization. Scale bars: 20 μm.
Cells were washed with PBS and fixed for 20 minutes with 2% PFA in PBS. Cells were permeabilised for 5 minutes with PBS/0.2% Triton X-100, and blocked with PBS/0.2% Tween 20 (PBS-T) containing 5% BSA. […]

[2] = tested on: HGPS cells (γH2AX, autophosphorylated ATM); experiment: DNA damage markers in HGPS cells (western blotting, IF); assay type: cell-based, human; conditions: Remodelin 1 μM
Experimental: The following KAT and KDAC inhibitors were used in the nuclear shape rescue screen, incubating cells with the molecules for 16 hours: trichostatin A (1 μM), sodium butyrate (5 mM), tubacin (10 μM), SAHA (5 μM), curcumin (10 μM), garcinol (50 μM), anacardic acid (1 μM), MB-3 (5 μM), 4-(4-chlorophenyl)-2-(2-cyclopentylidenehydrazinyl)thiazole (Compound 2) (50 μM), 4-(4-chlorophenyl)-2-(2-cyclopentylidene-1-(prop-2-yn-1-yl)hydrazinyl)thiazole (Compound 3) (50 μM) and cyclopentylidene-[4-(4-cyanophenyl)thiazol-2-yl)hydrazine (Compound 1) (Remodelin) (10 to 50 μM). For HGPS cellular fitness assays, Remodelin was incubated at 1 μM for 1 to 10 days, renewing the medium every 3 days. For long-term senescence assay, cells were kept and passaged in medium containing 1 μM Remodelin or DMSO only for 12 population doublings. Senescence was assessed after 8 days of Remodelin treatment when cells were at Population Doubling 12, and then after several weeks of Remodelin treatment, when cells reached Population Doubling 24 using the Senescence β-Galactosidase Staining Kit #9860 from Cell Signaling. […]
Total cell extracts were prepared by scraping cells in SDS lysis buffer (4% SDS, 20% glycerol, and 120 mM Tris-HCl, pH 6.8), boiling for 5 minutes at 95° C., followed by 10 strokes through a 25-gauge needle. […] Detection and quantification was performed with an imager (Odyssey; LI-COR Biosciences). […]

[3] = tested on: microtubule network of cells; experiment: Microtubule network by immunofluorescence of α-Tubulin; assay type: cell-based
Experimental: Cells were washed with PBS and fixed for 20 minutes with 2% PFA in PBS. Cells were permeabilised for 5 minutes with PBS/0.2% Triton X-100, and blocked with PBS/0.2% Tween 20 (PBS-T) containing 5% BSA. Coverslips were incubated for 1 hour with primary antibodies and for 30 minutes with appropriate secondary antibodies coupled to Alexa Fluor 488 or 594 fluorophores (Life Technologies), before being incubated with 2 μg/ml DAPI. Pictures were acquired with a FluoView 1000 confocal microscope (Olympus). For high resolution imaging, z-stacks were acquired with a Deltavision PersonalDV (Applied Precision, 1024×1024 CoolSNAP HQ2 camera, z-stack of 0.2 μm interval) or with a Deltavision OMX V3 in conventional mode (Applied Precision, 512×512 Cascade II cameras (Photometrics), z-stack of 0.125 μm interval) both equipped with a 100× UPlanSApo/1.40 oil objective (Olympus) and controlled with SoftWoRx software (Applied Precision). Deconvolutions were then performed with SoftWoRx (Applied Precision) in conservative mode. The different channels were acquired sequentially.

| Compound | global protein translation (HPG fluorescence intensity) (LMNA KO U2OS cells) | tolerability (body weight change) [1] | Golgi apparatus integrity (siLMNA cells) | steady-state DNA damage markers (γH2AX, autophosphorylated ATM) [2] | microtubule network organization [3] |
| --- | --- | --- | --- | --- | --- |
| Clc1ccc(-c2csc(NN=C3CCCC3)n2)cc1 [Compound 2, 4-(4-Chlorophenyl)-2-(2-cyclopentylidenehydrazinyl)thiazole Hydrochloride Salt] | strong reduction of global protein translation | well tolerated orally, up to high doses of 400 mg/kg/day, without significant decrease of body weight |  |  |  |
| N#Cc1ccc(-c2csc(NN=C3CCCC3)n2)cc1 [Compound 1, 4-(4-Cyanophenyl)-2-(2-cyclopentylidenehydrazinyl)thiazole] |  |  | did not affect Golgi apparatus integrity | decreased steady-state levels of γH2AX and autophosphorylated ATM | striking reorganization |
